Measurements taken from article PMC6768323, “Adverse Maternal, Fetal, and Postnatal Effects of Hexafluoropropylene Oxide Dimer Acid (GenX) from Oral Gestational Exposure in Sprague-Dawley Rats” (Environmental Health Perspectives, 2019).
Values joined by “and” are separate entries in the source; they are usually repeats but may differ in a detail not shown here. Equal values may be shown once.

What was measured:
[1] = system: pregnant Sprague-Dawley rats; experiment: Maternal serum thyroid hormones and lipid panel; type: in vivo
Protocol: Maternal serum samples from the first two blocks were analyzed for thyroid hormones and a standard lipid panel. Total triiodothyronine ( T3 ) and thyroxine ( T4 ) were quantified by radioimmunoassay (RIA) according to manufacturer specifications (IVD Technologies). […] Thyroid hormone RIA values were considered below detection when specific binding ( B/B0 ) was ≥90% ( 0.2 ng/mL for T3 and 2 ng/mL for T4 ) ([Sui and Gilbert 2003]). Serum total cholesterol, high-density lipoproteins (HDL), low-density lipoproteins (LDL), and triglycerides were quantified using a Beckman Coulter AU480 clinical chemistry analyzer (Beckman Coulter, Inc.) as per manufacturer’s protocol. All reagents were obtained from the instrument manufacturer except for the LDL assay, which was obtained from Diazyme Laboratories.

[2] = system: pregnant Sprague-Dawley rats; experiment: Maternal and fetal effects of GD14-18 oral dosing (weights, reproductive output); type: in vivo
Protocol: A total of three blocks of 15 dams per block were dosed once daily from GD14–18 with either water vehicle (control) or HFPO-DA to evaluate fetal and maternal effects (Figure 1A). The first block of dams was dosed with control, 62.5, 125, 250, or 500mg/kg HFPO-DA ( n=3 dams for each). The second and third blocks of dams were dosed with control, 1, 3, 10, or 30mg/kg HFPO-DA ( n=3 per dose per block). Total sample sizes were n=9 for control, n=6 for 1, 3, 10, 30mg/kg , and n=3 for 62.5, 125, 250, and 500mg/kg HFPO-DA. In the first two blocks, spanning the entire dose range, we evaluated fetal testis testosterone production, fetal testis gene expression, fetal and maternal liver gene expression, fetal body weight, and maternal serum thyroid hormone and lipid concentrations. In the third block, encompassing the lower dose range utilized here, we collected fetal plasma for measuring HFPO-DA concentrations. Across all three blocks we evaluated maternal weight gain during dosing, reproductive output (number of fetuses and resorptions), maternal serum HFPO-DA concentration, and maternal liver weight at necropsy.
For the first two blocks, spanning the full dose range, late gestation (GD18) dams were euthanized by decapitation at ∼2h after the final oral dose [ ∼0830–1000 hours Eastern Standard Time (EST)]. Trunk blood was collected and serum isolated via centrifugation ( 10,000×g for 15 min at 4°C) in vacutainer tubes, transferred to 1.5-mL microcentrifuge tubes and stored at −80°C . Dam liver weight was recorded and a sample of liver tissue was collected into a polypropylene microcentrifuge tube containing 500μL TRIzol Reagent (Invitrogen) on ice. Fetuses were removed and two randomly selected fetuses per litter were weighed. Fetal testes were collected from all male pups with a single testis from the first three males used for determination of ex vivo testosterone production and the remaining testes were homogenized and preserved in TRIzol Reagent for gene expression analysis. The liver was collected from a single, randomly selected fetus per dam/litter for gene expression analysis and transferred to a polypropylene microcentrifuge tube containing 500μL TRIzol Reagent (Invitrogen) on ice. Both dam and fetal liver samples were individually homogenized using a Bullet Blender (Next Advance) with 1-mm zirconium oxide beads, transferred to clean tubes, and stored at −80°C prior to RNA extraction (see below). Ex vivo fetal testis testosterone production was measured as previously reported ([Wilson et al. 2004b]) except the radioimmunoassay (RIA) utilized here was supplied by ALPCO (Catalog No. 72-TESTO-CT2, ALPCO). Briefly, one testis was isolated from each of three separate male fetuses in each litter and incubated in a humidified atmosphere at 37°C for 3 h in 500μL of M-199 media (phenol red–free; Hazelton Biologics, Inc.) supplemented with 10% dextran-coated charcoal-stripped fetal bovine serum (Hyclone Laboratories) in 24-well plates under gentle agitation. After incubation, media were removed and stored in siliconized microcentrifuge tubes at −80°C until RIA analyses, which were performed according to manufacturer specifications.
For the third block, dosed with the lower dose range ( 1–30mg/kg HFPO-DA), late gestation (GD18) dams were euthanized by decapitation ∼2h after the final dose, liver weight was recorded, and trunk blood was collected for serum isolation. Serum was isolated from trunk blood via centrifugation ( 10,000×g; 15 min; 4°C) using Becton Dickinson vacutainer tubes and stored in 1.5-mL siliconized microcentrifuge tubes at −80°C for future analyses. Fetuses were removed and fetal blood was collected from the jugular vein from all fetuses within a litter using heparinized glass capillary tubes. Blood was expelled from capillary tubes using fine-tip disposable transfer pipets into a microcentrifuge tube forming a single composite sample per litter. […]

Sprague-Dawley rats = details: cited from earlier work

## O=C(O)C(F)(OC(F)(F)C(F)(F)C(F)(F)F)C(F)(F)F (stereo not shown) [HFPO-DA, Hexafluoropropylene oxide dimer acid]
[1]; 250 and 500 mg/kg/d
  serum total T3 in the top two dose levels: < 0.2 ng/mL
[1]; GD18, 1-500 mg/kg/d
  Dam serum HDL: 36.3 ± 3.7 mg/dL and 36.0 ± 2.5 mg/dL and 33.0 ± 3.6 mg/dL and 37.0 ± 1.2 mg/dL and 36.7 ± 4.7 mg/dL and 28.7 ± 3.2 mg/dL and 19.3 ± 2.7 mg/dL
  Dam serum LDL: 14.7 ± 0.9 mg/dL and 14.0 ± 1.2 mg/dL and 12.7 ± 0.9 mg/dL and 12.3 ± 1.9 mg/dL and 13.3 ± 1.9 mg/dL and 19.0 ± 3.2 mg/dL and 14.7 ± 0.3 mg/dL and 14.0 ± 0.6 mg/dL
[1]; oral GD14-18
  dose with lower maternal serum thyroid hormone and lipid profiles: ≥ 30 mg/kg
[1]; rat, in vivo
  dose with significantly lower serum total T3: ≥ 30 mg/kg
  dose with significantly lower serum triglycerides: 500 mg/kg
  dose with significantly lower total T4 and LDL: ≥ 125 mg/kg
[2]; 1-500 mg/kg
  numbers of live pups, resorptions, fetal body weight compared with controls: no significant differences
[2]; 1-500 mg/kg/d
  Dam BW GD18: 378.6 ± 19.1 g and 364.1 ± 15.6 g and 371.5 ± 11.4 g and 354.3 ± 12.4 g and 366.2 ± 9.9 g and 346.7 ± 5.5 g and 350.2 ± 6.0 g and 369.8 ± 15.1 g
  No. fetuses: 12.3 ± 1.0 and 13.3 ± 0.6 and 13.2 ± 0.5 and 13.5 ± 0.4 and 12.7 ± 0.9 and 14.3 ± 0.3 and 13.7 ± 1.3 and 14.7 ± 0.3
[2]; GD14-18 dosing window
  maternal body weight gain compared with controls: significantly less body weight gain at the 250- and 500-mg/kg dose levels
[2]; GD18, 1-500 mg/kg/d
  Dam liver wt: 15.8 ± 0.7 g and 16.7 ± 1.1 g and 16.5 ± 0.5 g and 17.2 ± 0.5 g and 17.8 ± 0.7 g and 19.1 ± 0.6 g and 19.6 ± 0.3 g and 19.2 ± 0.6 g
  Fetal BW: 908.7 ± 27.0 mg and 816.7 ± 24.2 mg and 841.0 ± 38.4 mg and 842.2 ± 50.5 mg and 863.7 ± 31.7 mg and 841.8 ± 46.7 mg and 889.1 ± 26.9 mg and 808.2 ± 88.9 mg
[2]; dose order 1, 3, 10, 30, 62.5, 125, 250, 500 mg/kg/d
  Dam BW GD14: 337.0 ± 12.9 g and 341.6 ± 14.1 g and 330.8 ± 13.4 g and 338.0 ± 11.5 g and 320.9 ± 8.7 g and 330.6 ± 8.8 g and 325.8 ± 3.7 g and 339.1 ± 10.5 g
[2]; oral GD14-18
  dose with higher maternal liver weights: ≥ 62.5 mg/kg
Sprague-Dawley rats; ref Caverly Rae et al. 2015
  NOAEL: 1 mg/kg per day
  upper dose tolerated in the rat: 500 mg/kg per day
Sprague-Dawley rats; ref DuPont 2010
  NOAEL, prenatal developmental toxicity study: 10 mg/kg per day
  dose overtly toxic to the dam: 1,000 mg/kg per day
